The record followed here is patent US7820624B2, “Peptide ligands” (ICH Productions Limited, priority 2003, dated 2010).

“Also recorded” adds a separate entry of the source.

Series [1] deals with human monocyte-derived immature dendritic cells. Put plainly: Whole cell flow cytometry (FACS) of phage clone binding. As to conditions: day 4 cells, several donors; versus phage clone with no insert. The protocol: 5×10^4 Dendritic cells and 2×10^11 of an individual purified phage clone were each blocked at 4° C. for 30 mins in 1 ml MBSA (2% Marvel, 5% BSA in PBS), with mixing on a turntable. The dendritic cells were spun down at 2000 rpm, a gentle centrifugation to pellet cells without lysing them, for 5 min at 4° C., and the pellet resuspended in the blocked phage solution. The mixture was held on ice for 30 min to allow the phage to bind, before spinning down the cells, removing the supernatant and washing the cells with 1 ml 1% BSA, 0.05% Tween20-PBS. The cells were spun again, the supernatant removed, and the cells fixed in 1 ml 1% paraformaldehyde for 30 min on ice. […] The cells were incubated with the antibody on ice for 30 min before spinning down, washing twice in 0.05% Tween20, 1% BSA PBS, resuspending in […] and measuring the percentage cells positive for FITC by FACS analysis.
Alternatively, 5×10^4 dendritic cells were mixed with 2×10^11 of individual phage clones as described for panning of the phage library. The mixture of phage and DC suspensions was kept on ice for 30 min before cells were centrifuged to remove the supernatant and washed with 1 ml 1% BSA, 0.05% Tween 20-PBS. The cells were again pelleted by centrifugation, then fixed for flow cytometry analysis by resuspending in 1 ml of 1% paraformaldehyde for 30 min on ice. […] The cells were incubated with the antibody on ice for 30 min then pelleted by centrifugation, washed twice in 0.05% Tween 20, 1% BSA PBS and resuspended in 200 μl PBS. The percentage of FITC-positive cells was determined by flow cytometry using a Epics XL flow cytometer (Beckman Coulter, High Wycombe, UK.).
(In general: In flow cytometry, cells or beads pass a laser one at a time.)

Series [2] shares this test system. Put plainly: Titration of phage clone binding to human dendritic cells. To be noted: for Phage harvested by cell lysis (pfu), human donor S / Phage harvested by cell lysis (pfu), human donor two / Phage harvested by cell lysis (pfu), human donor one: 2×10^11 phage on 5×10^4 cells, 1 hour on ice. The protocol:
Phage were recovered and titred from each round of selection as follows. 2×10^11 Blocked phage were added to 5×10^4 blocked monocyte-derived immature dendritic cells for 1 hour on ice before washing cells three times with 0.05% Tween20-PBS, eluting phage with TBS pH5.5, and lysing cells to harvest the phage remaining bound. The numbers of phage harvested by cell lysis were calculated as plaque forming units (pfu). […] Sequencing of the bound phage shown in FIG. 1 identified the peptides as APSNSTA [SEQ. ID. NO.:15], QLLTGAS [SEQ. ID. NO.:30], TARDYRL [SEQ. ID. NO.:31], FQSQYQK [SEQ. ID. NO.:26], PLMPSLS [SEQ. ID. NO.:24], FPRAPHH [SEQ. ID. NO.:32], MASISMK [SEQ. ID. NO.:27], DWWHTSA [SEQ. ID. NO.:28], SHVKLNS [SEQ. ID. NO.:29], and SPALKTV [SEQ. ID. NO.:16].
(§1) The dendritic cells were spun down at 2000 rpm, for 5 min at 4° C., and resuspended in the phage solution, allowing the phage to bind for 1 hour on ice with occasional mixing. The cells were then washed in PBS-Tween 20 (0.05%) three times before eluting phage with 166 μl TBS pH5.5. for 10 min on ice. The eluate was neutralised with […] Tris-HCl pH 8, the cells were spun down, and the supernatant removed to be stored as eluate. The cell pellet was resuspended in 200 μl of cell lysis buffer (30 mM Tris-HCl, 1 mM EDTA pH 8.0) for 1 hour on ice, with shaking. The cell debris was removed by spinning at 5000 rpm for 5 min and the supernatant recovered. The phage in the eluate and the cell lysate were titred by measuring plaque forming units (pfu) in E. coli ER2738 as described in the NEB C7C technical bulletin.
(§2) The titration of phage clone binding was carried out using human and mouse dendritic cells, with binding to plastic as a control. The human cells were obtained from donors as stated below.

In a further series the test system is mouse dendritic cells. Put plainly: Titration of phage clone binding to mouse dendritic cells. To be noted: 2×10^11 phage. The method, then:
as §1, §2

The nature of series [3]: Titration of phage clone binding to blocked plastic (control). The method, then: as §1, §2
Series [4] relates to human monocyte-derived immature dendritic cells. In words: LID (lipid-peptide-DNA) transfection of immature dendritic cells, EGFP by FACS and 7AAD cell death. The class given is cell-based. More on the design: Transfection efficiency, % EGFP positive cells: concentration or dose not given beside the values. As to conditions: for Percentage of dendritic cells transfected / Transfection efficiency, % positive cells: day 4 cells; for Percentage of dendritic cells transfected: LID with lipofectin (FIG. 4b). The method, then:
(§3) Lipopolyplex (LID) transfection complexes comprising lipid (L), peptide (in the form of a peptide derivative as described above) (I) and DNA (D) were prepared. The lipid component was Lipofectin or Lipofectamine 2000 (Invitrogen Ltd, Paisley, UK), the peptide component was a synthesized peptide A to F, 6 or 6J derivative, as described in Table 7 above, and the DNA was the plasmid pEGFP-N1 (Clontech, BD Biosciences, Palo Alto, Calif.)
In the transfection complex, peptide component to DNA charge ratios (+/−) were used at 1.5:1, 3:1 and 7:1. The lipid
(§4) component (Lipofectin or Lipofectamine 2000) was maintained at a constant proportion, by weight, relative to DNA of 0.75:1. Prior to making transfection complexes, in method A the lipid component was diluted to a concentration of 15 μg per ml, the peptide was prepared at 0.1 mg/ml and the DNA (plasmid pEGFP-N1, BD Biosciences, Cowley, UK, prepared using EndoFree plasmid kit, Qiagen Ltd, Crawley, UK) was at 10 μg per ml. All dilutions were performed with OptiMEM reduced serum tissue culture medium (Life Technologies Ltd, Paisley, UK). In method B prior to making transfection complexes the lipid component was diluted to a concentration of 30 μg per ml, the peptide was prepared at 0.1 mg/ml and the DNA (plasmid pEGFP-N1, BD Biosciences, Cowley, UK, prepared using EndoFree plasmid kit, Qiagen Ltd, Crawley, UK) was at […]. All dilutions were performed in serum-free RPMI.
(§5) Transfection complexes were made by mixing the components in the order 1) lipid (50 μl) then 2) peptide (70 μl) and finally 3) DNA (50 μl), then diluting with OptiMEM or serum free RPMI, as appropriate, to a concentration relative to the DNA component of 2 μg DNA per […] (OptiMEM) or 500 μl (RPMI).
Immature day 6 dendritic cells, obtained as described in Example 1(v) above, were plated into a 48 well plate at 5×10^4 cells per well in complete media and allowed to settle for 3 hours at 37° C. 300 μl or 500 μl (as appropriate) of the transfection complex obtained as described above was added to each well. The transfection complex was applied to cells within 5 minutes of preparation. Transfection incubations were performed at 37° C. for 4 hours, after which the medium was replaced with complete medium with cytokines for 24 hours. Cells were harvested by scraping, spun down and resuspended in 300 μl PBS for FACS analysis to determine the percentage of cells positive for the reporter gene EGFP (Enhanced Green Fluorescent Protein). Each transfection was performed in triplicate wells.
(§6) For transfection of monocytes, peripheral blood monocytes were prepared using Lymphoprep centrifugation and CD14 bead selection as described in the method for preparation of monocyte derived dendritic cells in Example 1(v) above. These cells were then transfected as described as described for dendritic cells except that transfection of the monocytes (and also of day 3 or day 4 immature dendritic cells) was carried out in solution.

Series [5] has as its system human peripheral blood monocytes. Put plainly: LID transfection of monocytes, EGFP by FACS and cell death. To be noted: FIG. 7b; peptide F value with Lipofectin. The class given is cell-based. The method, then:
as §3, §4, §5, §6

The mark [6] stands for this setting: lipofectin, lipid:DNA 0.75:1, peptide:DNA 7:1 (FIG. 5a).

Turning to “SQKNPQM (Synthetic peptide binding to dendritic cells)”, the “Percentage of cells positive for bound phage (FITC) by FACS” value in series [1] is recorded as “binding to a higher percentage of cells than a phage clone bearing no insert”.

On to “TARDYRL (Synthetic peptide binding to dendritic cells)”, for which, in series [2], the “Phage harvested by cell lysis (pfu), human donor S” value (shortened to “Phage harvested … human donor S”) amounted to 940 pfu ×10^3 and the “Phage harvested by cell lysis (pfu), human donor two” value (shortened to “Phage harvested … human donor two”) was 180 pfu ×10^3. The “Percentage of cells positive for bound phage (FITC) by FACS” value in series [1] is “a higher percentage of cells positive for bound phage than the controls with no insert”.

“PMLPSLS (Synthetic peptide binding to dendritic cells)”: in the series with mouse dendritic cells, the “Phage titre (pfu), mouse DCs” value is given as 1520 pfu ×10^3. In series [2], the “Phage harvested … human donor S” value stood at 560 pfu ×10^3; the “Phage harvested by cell lysis (pfu), human donor one” value (“Phage harvested … human donor one” for short) stood at 40 pfu ×10^3; the “Phage harvested … human donor two” value came to 40 pfu ×10^3. Moreover, in series [3], the “Phage titre (pfu), plastic” value was 80 pfu ×10^3. Moreover, the “Percentage of cells positive for bound phage (FITC) by FACS” value in series [1] was “a higher percentage of cells positive for bound phage than the controls with no insert”.

On to “SPALKTV (Synthetic peptide binding to dendritic cells)”, for which, in the series with mouse dendritic cells, the “Phage titre (pfu), mouse DCs” value amounted to 600 pfu ×10^3. Also, in series [2], the “Phage harvested … human donor S” value was found to be 6960 pfu ×10^3 and the “Phage harvested … human donor one” value amounted to 120 pfu ×10^3. The “Phage titre (pfu), plastic” value in series [3] is reported as 220 pfu ×10^3. The “Percentage of cells positive for bound phage (FITC) by FACS” value in series [1] is reported as “all clones except for one”.

As for “STPPNTT (Synthetic peptide binding to dendritic cells)”, the “Percentage of cells positive for bound phage (FITC) by FACS” value in series [1] is on record as “a higher percentage of cells positive for bound phage than the controls with no insert”.

For the substance “MASISMK (Synthetic peptide binding to dendritic cells)”, the “Percentage of dendritic cells transfected” value in series [4] was “approximately half that value”. In series [4] (setting [6]), the “Transfection efficiency, % positive cells” value is listed as “about 7%”. In addition, the “Phage titre (pfu), mouse DCs” value in the series with mouse dendritic cells was 6380 pfu ×10^3. Besides, in series [2], the “Phage harvested … human donor S” value is given as 9440 pfu ×10^3; the “Phage harvested … human donor one” value is reported as 15220 pfu ×10^3; the “Phage harvested … human donor two” value was determined as 7780 pfu ×10^3. In addition, in series [2] (all titrations, including mouse dendritic cells, versus phage with no insert), the “Extent of phage clone binding in titrations” value is “bound in highest numbers in all titrations”. For the same substance, in series [3], the “Phage titre (pfu), plastic” value was 2380 pfu ×10^3. For the same substance, in series [1], the “Percentage of cells positive for bound phage (FITC) by FACS” value is listed as “a higher percentage of cells positive for bound phage than the controls with no insert”.

As to RRETAWA [peptide 6, reference compound], in series [4] (day 3 dendritic cells (FIG. 6a)), the “Transfection efficiency, % EGFP positive cells” value was 14%. The “Transfection efficiency, % positive cells” value came out at 3% in series [4] (Lipofectamine 2000) and 2% in series [4] (setting [6]).

On to “FQSQYQK (Synthetic peptide binding to dendritic cells)”, for which, in the series with mouse dendritic cells, the “Phage titre (pfu), mouse DCs” value is listed as 3260 pfu ×10^3. For the same substance, in series [2], the “Phage harvested … human donor S” value was 3060 pfu ×10^3; the “Phage harvested … human donor one” value is on record as 1000 pfu ×10^3; the “Phage harvested … human donor two” value is listed as 360 pfu ×10^3. Besides, the “Phage titre (pfu), plastic” value in series [3] stood at 1680 pfu ×10^3. Besides, the “Percentage of cells positive for bound phage (FITC) by FACS” value in series [1] is on record as “binding to a higher percentage of cells than a phage clone bearing no insert”.

As for “QLLTGAS (Synthetic peptide binding to dendritic cells)”, the “Phage titre (pfu), mouse DCs” value in the series on mouse dendritic cells amounted to 20 pfu ×10^3. Also, in series [2], the “Phage harvested … human donor S” value came to 220 pfu ×10^3; the “Phage harvested … human donor one” value is given as 380 pfu ×10^3; the “Phage harvested … human donor two” value is 960 pfu ×10^3. Further, the “Phage titre (pfu), plastic” value in series [3] is recorded as 220 pfu ×10^3. Also, the “Percentage of cells positive for bound phage (FITC) by FACS” value in series [1] is listed as “a higher percentage of cells positive for bound phage than the controls with no insert; also recorded: binds to marginally more cells than the others”.

With “DWWHTSA (Synthetic peptide binding to dendritic cells)”, the “Percentage of dendritic cells transfected” value in series [4] was “less than 1%”. For the same substance, in the series with mouse dendritic cells, the “Phage titre (pfu), mouse DCs” value worked out at 3240 pfu ×10^3. In series [2], the “Phage harvested … human donor S” value is 8020 pfu ×10^3; the “Phage harvested … human donor one” value was 2980 pfu ×10^3; the “Phage harvested … human donor two” value turned out to be 1380 pfu ×10^3. The “Phage titre (pfu), plastic” value in series [3] worked out at 1180 pfu ×10^3. Also, the “Percentage of cells positive for bound phage (FITC) by FACS” value in series [1] is on record as “binding to a higher percentage of cells than a phage clone bearing no insert; also recorded: bind to dendritic cells in highest amounts; also recorded: binding to dendritic cells in highest amounts”. Further, the Cell death in series [5] is given as 25%.
